Assay results as given in the NIST ThermoML archive (doi:10.1021/je049612f).
Numbers after ± are expanded uncertainties.

Conditions: Gas, Vibrating wire viscometry

FS(F)(F)(F)(F)F [sulfur hexafluoride]
Conditions	viscosity [mPa·s]
375 K, 11030 kPa	0.06052 ± 0.0012
375 K, 11466 kPa	0.06322 ± 0.0013
375 K, 12235 kPa	0.0678 ± 0.0013
375 K, 12730 kPa	0.07044 ± 0.0013
375 K, 13213 kPa	0.07319 ± 0.0014
375 K, 13867 kPa	0.07655 ± 0.0014
375 K, 14447 kPa	0.07948 ± 0.0014
375 K, 15713 kPa	0.08527 ± 0.0015
375 K, 16802 kPa	0.09 ± 0.0015
400 K, 100.75 kPa	0.0197 ± 0.00093
400 K, 127.69 kPa	0.01971 ± 0.00093
400 K, 153.61 kPa	0.01972 ± 0.00093
400 K, 174.48 kPa	0.01973 ± 0.00093
400 K, 200.5 kPa	0.01973 ± 0.00093
400 K, 224.7 kPa	0.01975 ± 0.00093
400 K, 249.97 kPa	0.01975 ± 0.00093
400 K, 276.92 kPa	0.01976 ± 0.00093
400 K, 316.57 kPa	0.01977 ± 0.00093
400 K, 356.06 kPa	0.01979 ± 0.00093
400 K, 387.16 kPa	0.0198 ± 0.00093
400 K, 431.42 kPa	0.01981 ± 0.00093
400 K, 458.7 kPa	0.01982 ± 0.00093
400 K, 482.84 kPa	0.01983 ± 0.00093
400 K, 520.38 kPa	0.01984 ± 0.00093
400 K, 569.64 kPa	0.01987 ± 0.00093
400 K, 636.33 kPa	0.01989 ± 0.00093
400 K, 669.9 kPa	0.0199 ± 0.00093
400 K, 702.5 kPa	0.01991 ± 0.00093
400 K, 753.74 kPa	0.01994 ± 0.00093
400 K, 791.41 kPa	0.01995 ± 0.00093
400 K, 818.44 kPa	0.01996 ± 0.00093
400 K, 853.97 kPa	0.01998 ± 0.00093
400 K, 930.59 kPa	0.02001 ± 0.00093
400 K, 972.98 kPa	0.02003 ± 0.00093
400 K, 1025.6 kPa	0.02006 ± 0.00093
400 K, 1088.2 kPa	0.02009 ± 0.00093
400 K, 1153.3 kPa	0.02012 ± 0.00093
400 K, 1240.9 kPa	0.02017 ± 0.00093
400 K, 1319.7 kPa	0.02022 ± 0.00093
400 K, 1397.4 kPa	0.02025 ± 0.00093
400 K, 1462.5 kPa	0.02029 ± 0.00093
400 K, 1615.7 kPa	0.02039 ± 0.00093
400 K, 1688.5 kPa	0.02043 ± 0.00093
400 K, 1768 kPa	0.02049 ± 0.00093
400 K, 1876.4 kPa	0.02057 ± 0.00093
400 K, 1956 kPa	0.02063 ± 0.00093
400 K, 2349.8 kPa	0.02093 ± 0.00094
400 K, 2474.2 kPa	0.02104 ± 0.00094
400 K, 2539.4 kPa	0.02109 ± 0.00094
400 K, 2835.4 kPa	0.02138 ± 0.00094
400 K, 3021.7 kPa	0.02156 ± 0.00094
400 K, 3266.3 kPa	0.02184 ± 0.00094
400 K, 3463.7 kPa	0.02205 ± 0.00094
400 K, 3614.2 kPa	0.02225 ± 0.00095
400 K, 3864.1 kPa	0.02256 ± 0.00095
400 K, 4152.9 kPa	0.02298 ± 0.00095
400 K, 4564.1 kPa	0.02363 ± 0.00096
400 K, 4898.5 kPa	0.02421 ± 0.00096
400 K, 5193.2 kPa	0.02477 ± 0.00097
400 K, 5460.7 kPa	0.02531 ± 0.00097
400 K, 5742.7 kPa	0.02594 ± 0.00098
400 K, 6016.6 kPa	0.02658 ± 0.00098
400 K, 6359.6 kPa	0.02746 ± 0.00099
400 K, 6659.9 kPa	0.02831 ± 0.00099
400 K, 6950.7 kPa	0.02917 ± 0.001
400 K, 7241 kPa	0.03009 ± 0.001
400 K, 7553 kPa	0.03115 ± 0.001
400 K, 7833.9 kPa	0.03216 ± 0.001
400 K, 8142 kPa	0.03332 ± 0.001
400 K, 8490.6 kPa	0.03475 ± 0.001
400 K, 8799 kPa	0.03604 ± 0.0011
400 K, 9139.9 kPa	0.0375 ± 0.0011
400 K, 9483.5 kPa	0.03903 ± 0.0011
400 K, 9833.2 kPa	0.0407 ± 0.0011
400 K, 10191 kPa	0.04234 ± 0.0011
400 K, 10589 kPa	0.04429 ± 0.0011
400 K, 11000 kPa	0.04619 ± 0.0011
400 K, 11434 kPa	0.04827 ± 0.0011
400 K, 11902 kPa	0.05055 ± 0.0012
400 K, 12397 kPa	0.05295 ± 0.0012
400 K, 12979 kPa	0.05567 ± 0.0012
400 K, 13719 kPa	0.05901 ± 0.0012
400 K, 14342 kPa	0.06179 ± 0.0013
400 K, 15061 kPa	0.06486 ± 0.0013
400 K, 15882 kPa	0.0684 ± 0.0013
400 K, 16792 kPa	0.07201 ± 0.0013
400 K, 17814 kPa	0.076 ± 0.0014
400 K, 18718 kPa	0.07939 ± 0.0014
400 K, 19958 kPa	0.08386 ± 0.0015
425 K, 94.41 kPa	0.02078 ± 0.00094
425 K, 120.34 kPa	0.0208 ± 0.00094
425 K, 155.2 kPa	0.02081 ± 0.00094
425 K, 171.36 kPa	0.02081 ± 0.00094
425 K, 192.07 kPa	0.02082 ± 0.00094
425 K, 205.12 kPa	0.02083 ± 0.00094
425 K, 228.29 kPa	0.02084 ± 0.00094
425 K, 263.75 kPa	0.02085 ± 0.00094
425 K, 289.54 kPa	0.02086 ± 0.00094
425 K, 311.35 kPa	0.02086 ± 0.00094
425 K, 345.33 kPa	0.02088 ± 0.00094
425 K, 374.1 kPa	0.02088 ± 0.00094
425 K, 392.73 kPa	0.02089 ± 0.00094
425 K, 424.79 kPa	0.0209 ± 0.00094
425 K, 466.85 kPa	0.02092 ± 0.00094
425 K, 503.16 kPa	0.02093 ± 0.00094
425 K, 552.86 kPa	0.02095 ± 0.00094
425 K, 598.07 kPa	0.02097 ± 0.00094
425 K, 629.86 kPa	0.02098 ± 0.00094
425 K, 668.63 kPa	0.021 ± 0.00094
425 K, 715.37 kPa	0.02101 ± 0.00094
425 K, 764.24 kPa	0.02103 ± 0.00094
425 K, 813.31 kPa	0.02105 ± 0.00094
425 K, 867.54 kPa	0.02108 ± 0.00094
425 K, 939.66 kPa	0.02111 ± 0.00094
425 K, 997 kPa	0.02114 ± 0.00094
425 K, 1067.1 kPa	0.02117 ± 0.00094
425 K, 1141.5 kPa	0.02121 ± 0.00094
425 K, 1213.4 kPa	0.02124 ± 0.00094
425 K, 1299.4 kPa	0.02129 ± 0.00094
425 K, 1385.6 kPa	0.02133 ± 0.00094
425 K, 1442.8 kPa	0.02137 ± 0.00094
425 K, 1506.3 kPa	0.02141 ± 0.00094
425 K, 1587.6 kPa	0.02145 ± 0.00094
425 K, 1656.3 kPa	0.02149 ± 0.00094
425 K, 1757.6 kPa	0.02155 ± 0.00094
425 K, 1833.5 kPa	0.0216 ± 0.00094
425 K, 1920.5 kPa	0.02166 ± 0.00094
425 K, 2344.2 kPa	0.02196 ± 0.00094
425 K, 2479.6 kPa	0.02206 ± 0.00094
425 K, 2578.5 kPa	0.02214 ± 0.00095
425 K, 2931.1 kPa	0.02244 ± 0.00095
425 K, 3150.4 kPa	0.02264 ± 0.00095
425 K, 3325.5 kPa	0.02282 ± 0.00095
425 K, 3586.1 kPa	0.02307 ± 0.00095
425 K, 3797.1 kPa	0.0233 ± 0.00096
425 K, 4066.4 kPa	0.02362 ± 0.00096
425 K, 4298.8 kPa	0.02388 ± 0.00096
425 K, 4546.2 kPa	0.0242 ± 0.00096
425 K, 4863.6 kPa	0.02464 ± 0.00097
425 K, 5124.6 kPa	0.02501 ± 0.00097
425 K, 5454.2 kPa	0.02553 ± 0.00097
425 K, 5739.4 kPa	0.026 ± 0.00098
425 K, 6056.4 kPa	0.02654 ± 0.00098
425 K, 6339.5 kPa	0.02706 ± 0.00098
425 K, 6654.3 kPa	0.02768 ± 0.00099
425 K, 7006 kPa	0.0284 ± 0.001
425 K, 7363.2 kPa	0.02921 ± 0.001
425 K, 7712.7 kPa	0.03006 ± 0.001
425 K, 8064.1 kPa	0.03097 ± 0.001
425 K, 8392.3 kPa	0.03179 ± 0.001
425 K, 8760.7 kPa	0.03277 ± 0.001
425 K, 9135.4 kPa	0.03386 ± 0.001
425 K, 9514.5 kPa	0.03501 ± 0.001
425 K, 9876.1 kPa	0.03614 ± 0.0011
425 K, 10296 kPa	0.03744 ± 0.0011
425 K, 10899 kPa	0.03948 ± 0.0011
425 K, 11563 kPa	0.04171 ± 0.0011
425 K, 11725 kPa	0.04223 ± 0.0011
425 K, 12199 kPa	0.04389 ± 0.0011
425 K, 12731 kPa	0.04579 ± 0.0011
425 K, 13246 kPa	0.04767 ± 0.0011
425 K, 14152 kPa	0.0509 ± 0.0012
425 K, 14767 kPa	0.05309 ± 0.0012
425 K, 15462 kPa	0.05563 ± 0.0012
425 K, 16201 kPa	0.05822 ± 0.0012
425 K, 17025 kPa	0.06094 ± 0.0012
425 K, 17904 kPa	0.06397 ± 0.0013
425 K, 18751 kPa	0.06707 ± 0.0013
425 K, 19579 kPa	0.06993 ± 0.0013
425 K, 20442 kPa	0.07271 ± 0.0014
